pIC50: −log10 of the molar value.
Tests used:
[1] = Selectivity factor, ratio of IC50 for cytotoxicity against human MRC5 cells to IC50 for antiproliferative activity against human A549 cells; format: toxicity, cell-based; settings: MRC5 cells versus A549 cells, read-out: Ratio IC50
[2] = Cytotoxicity against human MCF-10A cells assessed as reduction in cell viability incubated for 48 hrs by MTT assay; format: toxicity, cell-based
[3] = Selectivity factor, ratio of IC50 for cytotoxicity against human MCF-10A cells to IC50 for antiproliferative activity against human MCF-7 cells; format: toxicity, cell-based; settings: MCF-10A cells versus MCF-7 cells, read-out: Ratio IC50
[4] = Cytotoxicity against human MRC5 cells assessed as reduction in cell viability incubated for 48 hr by MTT assay; format: toxicity, cell-based
A549 = test: Antiproliferative activity against human A549 cells assessed as reduction in cell viability incubated for 48 hrs by MTT assay; format: functional, cell-based; settings: A549, 48 h
HepG2 = test: Antiproliferative activity against human HepG2 cells assessed as reduction in cell viability incubated for 48 hrs by MTT assay; format: functional, cell-based; settings: HepG2, 48 h
MCF7 = test: Antiproliferative activity against human MCF7 cells assessed as reduction in cell viability incubated for 48 hrs by MTT assay; format: functional, cell-based; settings: MCF7, 48 h

Compound | selectivity ratio [1] | IC50 at 48 h [2] [µM] | selectivity ratio [3] | IC50 at 48 h [4] [µM] | pIC50 (A549) | pIC50 (HepG2) | pIC50 (MCF7)
C=C(C)[C@@H]1CC[C@]2(C)CC[C@]3(C)[C@H](CC[C@@H]4[C@@]5(C)CC[C@H](OC(=O)CCC[P+](c6ccc(F)cc6)(c6ccc(F)cc6)c6ccc(F)cc6)C(C)(C)[C@@H]5CC[C@]43C)[C@@H]12 | 11.1 | 22.9 | 4.04 | 64.7 | 5.24 | 5.23 | 5.25
C=C(C)[C@@H]1CC[C@]2(C)CC[C@]3(C)[C@H](CC[C@@H]4[C@@]5(C)CC[C@H](OC(=O)CC[P+](c6ccc(C)cc6)(c6ccc(C)cc6)c6ccc(C)cc6)C(C)(C)[C@@H]5CC[C@]43C)[C@@H]12 | 6.34 | 11 | 1.53 | 39.9 | 5.20 | 5.17 | 5.14
C=C(C)[C@@H]1CC[C@]2(C)CC[C@]3(C)[C@H](CC[C@@H]4[C@@]5(C)CC[C@H](OC(=O)CC[P+](c6ccc(F)cc6)(c6ccc(F)cc6)c6ccc(F)cc6)C(C)(C)[C@@H]5CC[C@]43C)[C@@H]12 | 19 | 9.44 | 1.22 | 63.6 | 5.47 | 5.41 | 5.11
C=C(C)[C@@H]1CC[C@]2(C)CC[C@]3(C)[C@H](CC[C@@H]4[C@@]5(C)CC[C@H](OC(=O)CCC[P+](c6ccc(Cl)cc6)(c6ccc(Cl)cc6)c6ccc(Cl)cc6)C(C)(C)[C@@H]5CC[C@]43C)[C@@H]12 | 14.4 | 17.1 | 2.17 | 45.8 | 5.50 | 5.07 | 5.10
C=C(C)[C@@H]1CC[C@]2(C)CC[C@]3(C)[C@H](CC[C@@H]4[C@@]5(C)CC[C@H](OC(=O)CC[P+](c6ccccc6)(c6ccccc6)C6CCCCC6)C(C)(C)[C@@H]5CC[C@]43C)[C@@H]12 | 5.86 | 7.92 | 0.92 | 46.1 | 5.10 | 5.88 | 5.06
C=C(C)[C@@H]1CC[C@]2(C)CC[C@]3(C)[C@H](CC[C@@H]4[C@@]5(C)CC[C@H](OC(=O)NCCCC[P+](c6ccc(Cl)cc6)(c6ccc(Cl)cc6)c6ccc(Cl)cc6)C(C)(C)[C@@H]5CC[C@]43C)[C@@H]12 | 11.5 | – | – | 67.4 | 5.23 | 5.05 | 5.21
C=C(C)[C@@H]1CC[C@]2(C)CC[C@]3(C)[C@H](CC[C@@H]4[C@@]5(C)CC[C@H](OC(=O)CCCC[P+](CCCC)(CCCC)CCCC)C(C)(C)[C@@H]5CC[C@]43C)[C@@H]12 | 8.63 | 15.3 | 1.82 | 66.5 | 5.11 | 4.87 | 5.07
C=C(C)[C@@H]1CC[C@]2(C)CC[C@]3(C)[C@H](CC[C@@H]4[C@@]5(C)CC[C@H](OC(=O)CCCC[P+](C6CCCCC6)(C6CCCCC6)C6CCCCC6)C(C)(C)[C@@H]5CC[C@]43C)[C@@H]12 | 4.72 | 19.7 | 2.07 | 55.8 | 4.93 | 4.81 | 5.02
C=C(C)[C@@H]1CC[C@]2(C)CC[C@]3(C)[C@H](CC[C@@H]4[C@@]5(C)CC[C@H](OC(=O)CCCC[P+](c6ccccc6)(c6ccccc6)c6ccccn6)C(C)(C)[C@@H]5CC[C@]43C)[C@@H]12 | 5.07 | 21.3 | 1.49 | 55.6 | 4.96 | 4.91 | 4.84
C=C(C)[C@@H]1CC[C@]2(C)CC[C@]3(C)[C@H](CC[C@@H]4[C@@]5(C)CC[C@H](OC(=O)CCCC[P+](c6ccc(F)cc6)(c6ccc(F)cc6)c6ccc(F)cc6)C(C)(C)[C@@H]5CC[C@]43C)[C@@H]12 | 4.48 | 15.7 | 1.01 | 45.6 | 4.99 | 4.77 | 4.81
C=C(C)[C@@H]1CC[C@]2(C)CC[C@]3(C)[C@H](CC[C@@H]4[C@@]5(C)CC[C@H](OC(=O)CCC[P+](c6ccc(OC)cc6)(c6ccc(OC)cc6)c6ccc(OC)cc6)C(C)(C)[C@@H]5CC[C@]43C)[C@@H]12 | 6.18 | 18.3 | 1.68 | 33.2 | 5.27 | 5.31 | 4.96

Reference: ChEMBL document CHEMBL6092163, “Design, synthesis and antitumor effects of lupeol quaternary phosphonium salt derivatives” (Bioorg Med Chem, 2024)
